Test results published in patent US20110105748A1, “Novel beta-phenyl-alpha-oxysubstituted propionic derivatives: process for its preparation and their use in the preparation of pharmaceutically important compounds” (priority 2001, published 2011).

In the case of `CCOC(=O)[C@H](Cc1ccc(N)cc1)OCC` [Example 6, (S)-Ethyl 2-ethoxy-3-(4-aminophenyl)propionate], the melting point is reported as 74 to 76 °C.
